In patent US20070299109A1, “Dimeric Compounds Of Piperidine, Piperazine Or Morpholine Or Their 7-Membered Analogs Suitable For The Treatment Of Neurodegenerative Disorders” (priority 2004, published 2007):

System: chicken dorsal root ganglion neurons
Assay: Neuronal viability assay (calcein-AM) in primary culture of chicken dorsal root ganglion neurons
Format: cell-based, White Leghorn chick embryos
Conditions: Gallus gallus, DRG neuron, 48 h; survival of chick DRG neurons after two days of incubation; 0% = no neurotrophic factor, 100% = 10 ng/ml NGF; read-out: [C1] DRG assay SCORE (pIC50 value scored) (converted)
Excerpt: This assay is based on a fluorimetric Calcein-AM measurement and addresses the functional response of neurons as a quantitative measure of survival.
Dorsal root ganglia were dissected from White Leghorn chick embryos at embryonic day 10 as described previously (Skaper S. D. and Varon S. (1986) Brain Research 389, 39-46). The ganglia were trypsinised and dissociated by mild trituration in a HBSS buffer supplemented with 0.6% glucose and 0.08% trypsin. To remove non-neuronal cells by differential attachment to culture plastic, the ganglionic cell suspension was lo diluted to 2.5×10^5 cells/ml and seeded on tissue culture plastic dishes at 10 ml per 100 mm dish. After 2 h preplating, unattached neurons were collected and resuspended into Basal Eagle Medium containing 10% FCS. To remove cell aggregates, the cell suspension was passed through a nylon mesh (50 μM) pore diameter. Neuron-enriched cell suspension was plated at 5×10^4 cells/ml into poly-L-ornithine (100 μg/ml) and laminine (1 μg/ml) coated multiwell 96 plates. Compounds were dissolved in dimethyl sulfoxide and kept as a stock at −20° C. NGF and compounds were diluted in the culture medium and added to the cells immediately after plating. The final concentration of dimethyl sulfoxide in the test medium was 0.1%. After two days of incubation, neuronal viability was assessed with calcein-AM.
Neuronal viability assay using calcein AM was performed as previously described (Bozyczko-Coyne D., McKenna B. W., Connors T. J., and Neff N. T. (1993) Journal of Neuroscience Methods 50, 205-216). For the assay, calcein-AM was diluted in PBS to the final concentration (1 μM). […] Following the incubation, reading was done in a Cytofluor II at an excitation wavelength of 485 nm and an emission wavelength of 530 nm. […]
The drugs to be tested were taken from a stock solution and tested at a final concentration ranging from […] to 3.10^−9M. From the thus obtained dose response curves, the pIC50 value was calculated and scored as follows; Score 1=pIC50 value<6, Score 2=pIC50 value in the range of 6 to 8, Score 3=pIC50 value>8.

Compound | IC50
CN(c1nc2ccc(F)cc2s1)C1CCN(C(=O)CCCCCCCC(=O)N2CCC(N(C)c3nc4ccc(F)cc4s3)CC2)CC1 [Compound 5] | 10 to 1000 nM
CN(c1nc2ccccc2s1)C1CCN(C(=O)NC2CCC(CC3CCC(NC(=O)N4CCC(N(C)c5nc6ccccc6s5)CC4)CC3)CC2)CC1 (stereo not drawn) [Compound 9] | 10 to 1000 nM
c1ccc2c(c1)CCN2C1CCN(CCCN2CCC(N3CCc4ccccc43)CC2)CC1 [Compound 47] | > 1000 nM
